Source: patent US8058270B2, “Dihydropteridinones for the treatment of cancer diseases” (Boehringer Ingelheim International GmbH, priority 2004, dated 2011)

Columns and labels:
[1] = test system: cultivated human tumour cells; assay: Alamar Blue cytotoxicity assay (general); type: cell-based; details: summary in words, see Table 1
Excerpt: Alamar Blue™ Cytotoxicity Assays
The Alamar Blue™ assay is designed to measure quantitatively the proliferation of cells by incorporating a fluorometric/colorimetric growth indicator based on the detection of metabolic activity.
Cell culture: The various human tumor cell lines can be purchased from American Type Culture Collection (ATCC) or the German Collection of Microorganisms and Cell Cultures (DSMZ) and cultivated in 75 to 175 cm^2 tissue culture flasks in the medium indicated by the supplier. The cells are maintained at 37° C. and 5% CO2 in a humidified atmosphere, with an appropriate split ratio. Logarithmically growing cells are used for the assays.
Assay conditions: On day one of the experiment 1000-4000 cells (in 100 μl medium) are seeded into each well of a sterile 96-well plate. The number of cells used is dependent on the growth rate and size of the cells. Eight wells on each plate are left free to accommodate for controls (4 wells for medium plus reduced AlamarBlue™, and 4 wells for medium plus oxidized AlamarBlue™). The plates are kept in the incubator overnight. On day two of the experiment serial dilutions of the inhibitor are prepared in medium containing 0.1% DMSO. […] After 4-5 h of incubation, the plates are measured in a fluorescence spectrophotometer (excitation 530 nm, emission 590 nm, slits 15, integrate time 0.1). […]

[2] = test system: cultivated human tumour cells; assay: FACS analysis on PI stained tumor cells, cell cycle progression (general); type: cell-based; details: summary in words, see Table 1
Excerpt: FACS Analysis on PI Stained Tumor Cells
Propidium iodine (PI) binds stoichiometrically to double stranded DNA and thus is a suitable agent to measure the DNA content of cells in order to determine the percentage of cells residing in various cell cycle stages (G0/1-, S- and G2/M-phases), whereas cells in G0 or G1 phase do have a diploid DNA content (2N) cells in G2 and M-phase (mitosis) do have a doubled (4N) DNA content.
Cell culture: The various human tumor cell lines can be purchased from American Type Culture Collection (ATCC) or the German Collection of Microorganisms and Cell Cultures (DSMZ) and cultivated in 75 to 175 cm^2 tissue culture flasks in the medium indicated by the supplier. […]
Data analysis: Analysis of the DNA content of the cells can be performed using a FACS analyzer equipped with an argon laser (500 mW, emission 488 nm) and the use of the DNA Cell Quest analysis software (Beckton Dickinson). The logarithmic PI fluorescence is determined in a band-pass filter (Beckton Dickinson 585/43). Quantification of the cell populations residing in the individual cell cycle phases (e.g. G0/G1-, S- and G2/M-phases) is done with the ModFit LT software package from Becton Dickinson. An EC50 value for cells arrested at the G2/M-phase of the cell cycle is calculated by using a sigmoidal curve analysis program (Graph Pad Prism version 3.03).

Compound: CC[C@@H]1C(=O)N(C)c2cnc(Nc3ccc(C(=O)NC4CCN(C)CC4)cc3OC)nc2N1C1CCCC1 [Example 46, 4-[[(7R)-8-cyclopentyl-7-ethyl-5,6,7,8-tetrahydro-5-methyl-6-oxo-2-pteridinyl]amino]-3-methoxy-N-(1-methyl-4-piperidinyl)-benzamide]
- activity in cytotoxicity tests on cultivated human tumour cells [1]: good to very good activity
- inhibitory effect on cell cycle progression by FACS analysis [2]: good to very good activity
